Measurements taken from patent US20040033263A1, “Reduced formate poly(alkylene oxides) with secondary amines for reducing impurity formation” (priority 2002, published 2004).

Assays:
[1] = cited from earlier work
[2] = Stability of reboxetine methanesulfonate in the presence of traditional poly(alkylene oxide) polymers; format: physicochemical
Excerpt: Substantial levels of various impurities are formed, which increase in concentration over time. The predominant impurity that is formed is the n-formyl species of reboxetine methanesulfonate, known as n-formyl reboxetine.
Poly(alkylene oxide) polymer consists of long chains of the polymer. Irradiation and oxidation cause these chains to be cleaved, leaving inorganic and organic formates at the ends of the chains. As more cleaving occurs, there are higher levels of formates present.

stability in the presence of traditional poly(alkylene oxide) polymer subjected to irradiation processes or oxidation [2] | stability in the presence of traditional polyethylene oxides [2] | Compound | Pka [1]
– | – | F [hydrofluoric acid] | 3.14
– | – | O=S(O)(O)=S [thiosurfuric acid] | 2.00
substantially less stable | unstable | CCOc1ccccc1OC(c1ccccc1)C1CNCCO1.CS(=O)(=O)O (centres unmarked) [reboxetine methanesulfonate] | –
– | – | C/C(=C/C(=O)O)C(=O)O [citraconic acid] | 2.48
